Measurements taken from US10206921B2, “Methods and compositions for treating a subject for central nervous system (CNS) injury” (THE REGENTS OF THE UNIVERSITY OF CALIFORNIA, priority 2009, dated 2019).
“Also recorded” adds a separate entry of the source.

Tests used:
GABAARs = test: GABAAR saturation test: GABA raised in ACSF after blocking both GATs; format: cell-based, mouse; conditions: GABA +10 μM in ACSF after 10 μM NO-711+40 μM SNAP-5114; control slices; n=3
From the text: Whole-cell patch-clamp recordings were made from post-stroke brain slices, within 200 μm of infarct (top left), from layer-2/3 (top right) pyramidal neurons (bottom panels) (FIG. 1A). Cells were voltage-clamped at +10 mV.

mice after stroke [1] = test: Cylinder task (spontaneous forelimb use when rearing) after stroke; format: in vivo, mouse; conditions: for gain of function post-stroke on the cylinder task: 7 to 42 days post-stroke
From the text: (§1) Stroke completely destroys the tissue in at the center of the stroke (the core) and partially damages the tissue adjacent to the infarct (Katsman D, Spinelli K, Zhang J, and Carmichael S T (2003) Tissue microenvironments within functional cortical subdivisions adjacent to focal stroke. J Cereb Blood Flow Met 23:997-1009; Carmichael S T, Archibeque I, Luke L, Nolan T, Momiy J, Li S. (2005) Growth-Associated Gene Expression after Stroke: Evidence for a growth-promoting region in peri-infarct cortex. Expt Neurol. 193:291-311), i.e., the peri-infarct region. Studies indicate that this peri-infarct region is disabled through partial damage to neuronal circuits, as described above. To model this process experimentally, a stroke model was used that produces complete damage to a part of the brain that controls forelimb use in a mouse, the forelimb motor cortex (FIGS. 5A-5B). […] The stroke destroys part of the forelimb motor cortex. The vertical line indicates site of tissue sections in the middle panel. […] The stroke damage is restricted to the cortex, with partial damage in adjacent white mater and surrounding motor areas. This damage is seen as increased staining for GFAP (reactive astrocytes, arrows) and increased cellularity in Nissl stains (arrows). This stroke knocks out part of the forelimb motor cortex and causes partial damage to the rest of forelimb cortex and to hindlimb motor cortex. This disables fore- and hindlimb control and produces weakness in using these limbs for walking and for exploratory forelimb behaviors, (such as using the forelimb when rearing onto objects, FIGS. 6A-6C). Measures of fore- and hindlimb behaviors in this model of stroke thus provide a readout of the function of partially damaged brain areas near the stroke core.
Treatments that must be administered very early in the clinical course of stroke, such as tPA, are difficult to deliver because most patients are not in the hospital and so rapid emergency response and laboratory screening systems must be developed. […]

mice after stroke [2] = test: Grid-walking task after stroke in forelimb motor cortex; format: in vivo, mouse; conditions: subcutaneous osmotic minipump from 3 days after stroke
From the text: as §1, with “This damage is seen as increased staining for GFAP (reactive astrocytes, arrows) and increased cellularity in Nissl stains (arrows). This stroke knocks out part of the forelimb motor cortex and causes partial damage to the rest of forelimb cortex and to hindlimb motor cortex. This disables fore- and hindlimb control and produces weakness in using these limbs for walking and for exploratory forelimb behaviors, (such as using the forelimb when rearing onto objects, FIGS. 6A-6C).” left out, “core. […]” for “core.”

α5GABAA receptor = molecular target: T1, α5GABAA receptor (Mus musculus, UniProt P22723+Q8BHJ7); test: Whole-cell patch-clamp of tonic inhibition (Itonic) in brain slices with L655,708; format: cell-based
T1 construct: Whole-cell patch-clamp recordings were made from post-stroke brain slices; from tissue; host or cells: brain slices, peri-infarct motor cortex, layer 2/3 pyramidal neurons
From the text: (§2) Whole-cell patch-clamp recordings were made from post-stroke brain slices, within 200 μm of infarct (top left), from layer-2/3 (top right) pyramidal neurons (bottom panels) (FIG. 1A). Cells were voltage-clamped at +10 mV. […] FIGS. 1C and D show representative traces showing the tonic inhibitory currents in control and peri-infarct neurons, respectively.
(§3) Itonic remained elevated from 3- to 14-days post-stroke.
(§4) In post-stroke neurons, co-application only produced an effect (110.7±32.0%, n=5) similar to GAT-1 blockade alone (P<0.68; FIG. 2A), indicating a dysfunction in GAT-3/4 after stroke.

mice after stroke [3] = test: Behavioral/functional recovery after stroke (grid-walking and cylinder tasks together); format: in vivo, mouse
Procedure: The GABAaα5 inverse agonist L655,708 was administered through subcutaneously implanted osmotic minipumps. Mice were tested fore- and hindlimb function before, and then at one, two, four and six weeks after stroke.
FIGS. 9A-9C illustrate behavioral recovery after stroke in young and aged animals with L655,708. […] Functional recovery was assessed behaviorally on both the gridwalking task for forelimb footfaults (FIG. 9A) and hindlimb footfaults (FIG. 9B), and on the cylinder task for forelimb asymmetry (FIG. 9C). […] On average the normal gain of function in the aged stroke+vehicle treated animals is less than that of the young stroke+vehicle treated animals. In addition, the aged stroke+L655,708 animals show slightly less improvement compared to young stroke+L655,708 animals. For instance, on the cylinder task young stroke+L655,708 animals show a 15-18% gain of function post-stroke (7 to 42-days), compared with a 13-16% gain of function post-stroke in the aged. Data is shown as mean±s.e.m. for n=8 per group for L655,708 treatment for both young and aged animals, ***=P≤0.001 for stroke+vehicle vs Sham; +=P≤0.05, ++=P≤0.001 aged stroke+L655,708 vs aged stroke+vehicle, ##=P≤0.01, #=P≤0.001 young stroke+L655,708 vs young stroke+vehicle.
Functional recovery was assessed behaviorally on both the gridwalking task for forelimb footfaults (FIG. 10A), hindlimb footfaults (FIG. 10B), and on the cylinder task for forelimb asymmetry (FIG. 10C). Data are shown as mean±s.e.m. for n=8 per group, ***=P≤0.001 for stroke+vehicle vs. Sham; ##=P≤0.01, #=P≤0.001 vs. stroke+vehicle.
Two different durations of treatment were used (2 weeks and 6 weeks after stroke. Because stroke is a disease of aging, and the clinical target of stroke is most commonly aged patients, L655,708 was tested in aged animals after stroke. At the end of behavioral testing (6 weeks after stroke) mice received mapping of the pattern of cortical connections in the motor system in peri-infarct cortex (Overman J J, Kalaria S, Overman B, Willis D, Twiss J, Wanner I B, Li S, Carmichael S T (2008) Post-stroke blockade of ephrinA5 increases axonal sprouting in the mouse somatosensory cortex. Soc Neurosci. Abst.). Axonal sprouting in this pen-infarct cortex is closely associated with functional recovery in stroke (Carmichael, '06). Therapies directed toward neural repair after stroke promote the formation of new connections in peri-infarct cortex (Overman et al., '08).
To define the total role of GABAA α5 and δ receptors in functional recovery after stroke, behavioral testing was performed on Gabra5^−/− and Gabrd^−/− mice (FIGS. 8A-8C). For both α5 and δ knockouts, the same experimental approach was utilized. Mice were tested for e- and hindlimb function before stroke. […]

[4] = molecular target: T2, GABA transporters (GATs): GAT-1, GAT-3/4 (Mus musculus, UniProt P31648); test: Whole-cell patch-clamp of tonic inhibition (Itonic) in brain slices after GAT blockade; format: cell-based; conditions: NO-711 10 μM
T2 construct: Whole-cell patch-clamp recordings were made from post-stroke brain slices; from tissue; host or cells: brain slices, peri-infarct motor cortex, recordings from layer 2/3 pyramidal neurons
From the text: as §2, §3, §4

T1 sequence (Q8BHJ7 32-463 limits assumed): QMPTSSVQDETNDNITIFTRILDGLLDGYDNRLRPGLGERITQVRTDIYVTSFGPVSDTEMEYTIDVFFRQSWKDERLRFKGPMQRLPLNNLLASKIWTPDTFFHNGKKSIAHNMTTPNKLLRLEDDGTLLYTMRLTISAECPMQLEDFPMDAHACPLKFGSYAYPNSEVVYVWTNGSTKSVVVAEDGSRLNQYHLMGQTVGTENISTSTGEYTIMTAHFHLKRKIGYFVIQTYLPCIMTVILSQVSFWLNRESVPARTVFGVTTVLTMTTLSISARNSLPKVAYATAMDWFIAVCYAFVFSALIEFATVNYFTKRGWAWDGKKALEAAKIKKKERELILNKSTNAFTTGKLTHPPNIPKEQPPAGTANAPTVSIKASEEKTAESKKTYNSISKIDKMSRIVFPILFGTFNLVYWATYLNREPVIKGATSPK
T1 sequence (P22723 39-474): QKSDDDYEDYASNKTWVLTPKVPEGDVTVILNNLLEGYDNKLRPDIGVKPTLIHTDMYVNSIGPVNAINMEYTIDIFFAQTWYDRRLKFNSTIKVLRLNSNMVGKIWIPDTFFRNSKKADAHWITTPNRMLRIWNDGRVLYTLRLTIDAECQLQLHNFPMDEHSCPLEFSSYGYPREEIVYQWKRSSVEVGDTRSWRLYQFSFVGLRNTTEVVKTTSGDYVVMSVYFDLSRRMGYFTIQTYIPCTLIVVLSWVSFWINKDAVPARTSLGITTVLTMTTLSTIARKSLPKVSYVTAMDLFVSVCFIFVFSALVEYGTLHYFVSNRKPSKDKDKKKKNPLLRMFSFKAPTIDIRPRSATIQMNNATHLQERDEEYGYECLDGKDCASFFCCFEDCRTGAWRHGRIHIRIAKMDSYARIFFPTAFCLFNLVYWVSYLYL
T1 sequence (P63080 26-473 partner): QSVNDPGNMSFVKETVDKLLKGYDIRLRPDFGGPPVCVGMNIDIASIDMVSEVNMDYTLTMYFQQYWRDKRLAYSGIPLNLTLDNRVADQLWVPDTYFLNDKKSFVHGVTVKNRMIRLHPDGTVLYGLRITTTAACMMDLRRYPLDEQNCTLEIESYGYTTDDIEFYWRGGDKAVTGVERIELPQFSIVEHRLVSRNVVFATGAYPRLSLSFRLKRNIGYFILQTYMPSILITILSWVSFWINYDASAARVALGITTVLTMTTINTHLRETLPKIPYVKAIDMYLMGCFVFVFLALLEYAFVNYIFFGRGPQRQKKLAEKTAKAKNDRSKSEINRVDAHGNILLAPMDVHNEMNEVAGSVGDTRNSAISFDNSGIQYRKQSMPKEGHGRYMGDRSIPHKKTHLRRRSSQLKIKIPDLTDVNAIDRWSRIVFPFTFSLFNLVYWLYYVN

NCCCC(=O)O [GABA, gamma aminobutyric acid]
percent increase in Itonic (GABAARs): 25.7±15.0%

CCOC(=O)c1ncn2c1[C@@H]1CCCN1C(=O)c1cc(OC)ccc1-2 [L655,708]
gain of function post-stroke on the cylinder task (mice after stroke [1]; aged stroke animals): 13-16% | forelimb function in the cylinder task (mice after stroke [1]; subcutaneous osmotic minipump from 3 days after stroke, 7 day post-stroke test period, FIG. 6C): recovered right forelimb use very quickly | gain of function post-stroke on the cylinder task (mice after stroke [1]; young stroke animals): 15-18% | hindlimb function in the grid-walking task (mice after stroke [2]; FIG. 6B): statistically significant improvement by the 42 day testing period | forelimb function in the grid-walking task (mice after stroke [2]; approx. 200 or 400 μg/kg/day, FIG. 6A): enhanced forelimb use | effect on Itonic (α5GABAA receptor; 100 nM, representative recording (FIG. 2D)): reduced Itonic | effect on post-stroke Itonic (α5GABAA receptor; post-stroke neurons, P<0.05 (FIG. 2F)): significantly decreased post-stroke Itonic, and notably reverted Itonic to near-control level | behavioral recovery after stroke, dosing duration (mice after stroke [3]; 2-week and 6-week treatment, 6-week the most significant recovery): produces behavioral recovery | functional recovery after stroke in Gabrd−/− mice (mice after stroke [3]; L655,708 given to GABAA receptor δ subunit null mutant mice): additive effect on functional recovery; also recorded: further functional recovery | functional recovery after stroke (mice after stroke [3]; treatment from 3 days after stroke, young and aged animals, FIGS. 9A-9C): increase in functional recovery in both young and aged animals | behavioral recovery after stroke, dose dependence (mice after stroke [3]; young adult and aged mice, low and high dose): promotes behavioral recovery after stroke in a dose-dependent manner

O=C(O)C1=CCCN(CCON=C(c2ccccc2)c2ccccc2)C1 [NO-711]
% Itonic increase after GAT blockade ([4]; control neurons, n=6): 34.3±11.4% | % Itonic increase after GAT blockade ([4]; post-stroke neurons, n=10): 94.0±16.3%
